According to ChEMBL document CHEMBL1145754, “Design and synthesis of statine-containing BACE inhibitors” (Bioorg Med Chem Lett, 2003):
Non-standard residues stand in square brackets, D forms with d. Residues, ends and D or L forms follow the SMILES beside them. *: point of attachment. Sta = CC(C)C[C@H](N)[C@@H](O)CC(=O)O; 3Amb = NCc1cccc(C(=O)O)c1; Nle = CCCC[C@H](N)C(=O)O; Nva = CCC[C@H](N)C(=O)O; X1 = O=C(C1CCCCO1)*

These molecules were tested against Beta-secretase 1 (Homo sapiens, UniProt P56817) (assay: Inhibition of human beta-secretase).
Sequence of Beta-secretase 1 (P56817 whole entry): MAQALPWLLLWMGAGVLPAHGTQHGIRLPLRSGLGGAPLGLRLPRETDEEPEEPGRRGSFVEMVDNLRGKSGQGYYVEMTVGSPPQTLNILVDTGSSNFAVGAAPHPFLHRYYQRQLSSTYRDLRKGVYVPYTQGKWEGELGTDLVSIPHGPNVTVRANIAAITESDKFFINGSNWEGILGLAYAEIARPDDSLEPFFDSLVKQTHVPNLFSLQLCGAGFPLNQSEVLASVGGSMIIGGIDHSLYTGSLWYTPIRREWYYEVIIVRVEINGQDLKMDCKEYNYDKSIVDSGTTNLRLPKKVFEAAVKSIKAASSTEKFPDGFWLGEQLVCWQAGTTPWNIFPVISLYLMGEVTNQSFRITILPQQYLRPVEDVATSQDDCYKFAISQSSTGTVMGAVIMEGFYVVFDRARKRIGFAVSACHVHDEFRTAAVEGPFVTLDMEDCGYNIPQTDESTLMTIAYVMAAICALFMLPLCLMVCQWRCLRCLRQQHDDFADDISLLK

Compound	IC50 [nM]
CC(=O)N[C@@H](CC(C)C)C(=O)N[C@@H](C)C(=O)N[C@@H](CC(C)C)[C@@H](O)CC(=O)N[C@H](C(=O)NCc1cccc(C(=O)O)c1)C(C)C	520
CSCC[C@H](NC(=O)[C@H](CC(C)C)NC(C)=O)C(=O)N[C@@H](CC(C)C)[C@@H](O)CC(=O)N[C@H](C(=O)NCc1cccc(C(=O)O)c1)C(C)C	890
CC[C@@H](C)[C@@H](NC(C)=O)C(=O)N[C@@H](C)C(=O)N[C@@H](CC(C)C)[C@@H](O)CC(=O)N[C@H](C(=O)NCc1cccc(C(=O)O)c1)C(C)C	> 91000
CC[C@H](C)[C@H](NC(C)=O)C(=O)N[C@@H](C)C(=O)N[C@@H](CC(C)C)[C@@H](O)CC(=O)N[C@H](C(=O)NCc1cccc(C(=O)O)c1)C(C)C	250
CSCC[C@@H](NC(=O)[C@H](CC(C)C)NC(C)=O)C(=O)N[C@@H](CC(C)C)[C@@H](O)CC(=O)N[C@H](C(=O)NCc1cccc(C(=O)O)c1)C(C)C	> 91000
CC(=O)N[C@@H](CC(C)C)C(=O)N[C@H](C)C(=O)N[C@@H](CC(C)C)[C@@H](O)CC(=O)N[C@H](C(=O)NCc1cccc(C(=O)O)c1)C(C)C	> 91000
CSCC[C@H](NC(=O)[C@H](CC(C)C)NC(C)=O)C(=O)N[C@@H](CC(C)C)[C@@H](O)CC(=O)N[C@@H](C(=O)NCc1cccc(C(=O)O)c1)C(C)C	> 91000
CC[C@H](C)[C@H](NC(C)=O)C(=O)N[C@@H](C)C(=O)N[C@@H](CC(C)C)[C@@H](O)CC(=O)N[C@@H](Cc1ccccc1)C(=O)NCc1cccc(C(=O)O)c1 (Ac-IA[Sta]F[3Amb]-OH)	250
CC[C@H](C)[C@H](NC(C)=O)C(=O)N[C@@H](C)C(=O)N[C@@H](CC(C)C)[C@@H](O)CC(=O)N[C@@H](CC(C)C)C(=O)NCc1cccc(C(=O)O)c1 (Ac-IA[Sta]L[3Amb]-OH)	260
CC[C@H](C)[C@H](NC(C)=O)C(=O)N[C@@H](C)C(=O)N[C@@H](CC(C)C)[C@@H](O)CC(=O)N[C@@H](Cc1ccc(O)cc1)C(=O)NCc1cccc(C(=O)O)c1 (Ac-IA[Sta]Y[3Amb]-OH)	110
CCCC[C@H](NC(=O)C[C@H](O)[C@H](CC(C)C)NC(=O)[C@H](C)NC(=O)[C@@H](NC(C)=O)[C@@H](C)CC)C(=O)NCc1cccc(C(=O)O)c1 (Ac-IA[Sta][Nle][3Amb]-OH)	180
CC[C@H](C)[C@H](NC(C)=O)C(=O)N[C@@H](CCSC)C(=O)N[C@@H](CC(C)C)[C@@H](O)CC(=O)N[C@@H](Cc1ccccc1)C(=O)NCc1cccc(C(=O)O)c1 (Ac-IM[Sta]F[3Amb]-OH)	140
CC[C@H](C)[C@H](NC(C)=O)C(=O)N[C@@H](CCSC)C(=O)N[C@@H](CC(C)C)[C@@H](O)CC(=O)N[C@@H](Cc1ccc(O)cc1)C(=O)NCc1cccc(C(=O)O)c1 (Ac-IM[Sta]Y[3Amb]-OH)	91
CCCC[C@H](NC(=O)C[C@H](O)[C@H](CC(C)C)NC(=O)[C@H](CCSC)NC(=O)[C@@H](NC(C)=O)[C@@H](C)CC)C(=O)NCc1cccc(C(=O)O)c1 (Ac-IM[Sta][Nle][3Amb]-OH)	86
CCC[C@H](NC(=O)C[C@H](O)[C@H](CC(C)C)NC(=O)[C@H](CCSC)NC(=O)[C@@H](NC(C)=O)[C@@H](C)CC)C(=O)NCc1cccc(C(=O)O)c1 (Ac-IM[Sta][Nva][3Amb]-OH)	130
CC(=O)N[C@H](C(=O)N[C@@H](C)C(=O)N[C@@H](CC(C)C)[C@@H](O)CC(=O)N[C@H](C(=O)NCc1cccc(C(=O)O)c1)C(C)C)C(C)C (Ac-VA[Sta]V[3Amb]-OH)	3800
CCCC[C@H](NC(C)=O)C(=O)N[C@@H](C)C(=O)N[C@@H](CC(C)C)[C@@H](O)CC(=O)N[C@H](C(=O)NCc1cccc(C(=O)O)c1)C(C)C (Ac-[Nle]A[Sta]V[3Amb]-OH)	1400
CCC[C@H](NC(C)=O)C(=O)N[C@@H](C)C(=O)N[C@@H](CC(C)C)[C@@H](O)CC(=O)N[C@H](C(=O)NCc1cccc(C(=O)O)c1)C(C)C (Ac-[Nva]A[Sta]V[3Amb]-OH)	830
CC(C)C[C@H](NC(=O)[C@H](C)NC(=O)[C@@H](NC(=O)[C@@H](N)CCC(=O)O)C(C)C)[C@@H](O)CC(=O)N[C@H](C(=O)N[C@@H](C)C(=O)N[C@@H](CCC(=O)O)C(=O)N[C@@H](Cc1ccccc1)C(=O)O)C(C)C (H-EVA[Sta]VAEF-OH)	110
CC[C@H](C)[C@H](NC(=O)C[C@H](O)[C@H](CC(C)C)NC(=O)[C@H](CCSC)NC(=O)[C@@H](NC(=O)[C@@H](N)CCC(=O)O)C(C)C)C(=O)N[C@@H](C)C(=O)N[C@@H](CCC(=O)O)C(=O)N[C@@H](Cc1ccccc1)C(=O)O (H-EVM[Sta]IAEF-OH)	220
CSCC[C@H](NC(=O)[C@@H](NC(=O)[C@@H](N)CCC(=O)O)C(C)C)C(=O)N[C@@H](CC(C)C)[C@@H](O)CC(=O)N[C@@H](CC(C)C)C(=O)N[C@@H](C)C(=O)N[C@@H](CCC(=O)O)C(=O)N[C@@H](Cc1ccccc1)C(=O)O (H-EVM[Sta]LAEF-OH)	140
CSCC[C@H](NC(=O)[C@@H](NC(=O)[C@@H](N)CCC(=O)O)C(C)C)C(=O)N[C@@H](CC(C)C)[C@@H](O)CC(=O)N[C@H](C(=O)N[C@@H](C)C(=O)N[C@@H](CCC(=O)O)C(=O)N[C@@H](Cc1ccccc1)C(=O)O)C(C)C (H-EVM[Sta]VAEF-OH)	58
CC(C)C[C@H](NC(=O)[C@H](CC(N)=O)NC(=O)[C@@H](NC(=O)[C@@H](N)CCC(=O)O)C(C)C)[C@@H](O)CC(N)=O (H-EVN[Sta]-NH2)	> 91000
CC(C)C[C@H](NC(=O)[C@H](CC(N)=O)NC(=O)[C@@H](NC(=O)[C@@H](N)CCC(=O)O)C(C)C)[C@@H](O)CC(=O)N[C@H](C(N)=O)C(C)C (H-EVN[Sta]V-NH2)	9400
CC(C)C[C@H](NC(=O)[C@H](CC(N)=O)NC(=O)[C@@H](NC(=O)[C@@H](N)CCC(=O)O)C(C)C)[C@@H](O)CC(=O)N[C@H](C(=O)N[C@@H](C)C(N)=O)C(C)C (H-EVN[Sta]VA-NH2)	530
CC(C)C[C@H](NC(=O)[C@H](CC(N)=O)NC(=O)[C@@H](NC(=O)[C@@H](N)CCC(=O)O)C(C)C)[C@@H](O)CC(=O)N[C@H](C(=O)N[C@@H](C)C(=O)N[C@@H](CCC(=O)O)C(N)=O)C(C)C (H-EVN[Sta]VAE-NH2)	110
CC(C)C[C@H](NC(=O)[C@H](CC(N)=O)NC(=O)[C@@H](NC(=O)[C@@H](N)CCC(=O)O)C(C)C)[C@@H](O)CC(=O)N[C@H](C(=O)N[C@@H](C)C(=O)N[C@@H](CCC(=O)O)C(=O)N[C@@H](Cc1ccccc1)C(=O)O)C(C)C (H-EVN[Sta]VAEF-OH)	46
CC(C)C[C@H](NC(=O)[C@@H](N)CC(N)=O)[C@@H](O)CC(=O)N[C@H](C(=O)N[C@@H](C)C(=O)N[C@@H](CCC(=O)O)C(=O)N[C@@H](Cc1ccccc1)C(=O)O)C(C)C (H-N[Sta]VAEF-OH)	> 91000
CC(C)C[C@H](NC(=O)[C@H](CC(N)=O)NC(=O)[C@@H](N)C(C)C)[C@@H](O)CC(=O)N[C@H](C(=O)N[C@@H](C)C(=O)N[C@@H](CCC(=O)O)C(=O)N[C@@H](Cc1ccccc1)C(=O)O)C(C)C (H-VN[Sta]VAEF-OH)	2000
CC[C@H](C)[C@H](NC(=O)C1CCCCO1)C(=O)N[C@@H](C)C(=O)N[C@@H](CC(C)C)[C@@H](O)CC(=O)N[C@H](C(=O)NCc1cccc(C(=O)O)c1)C(C)C (stereo not given in full) (X1-IA[Sta]V[3Amb]-OH)	69
